{"source": "patent US20100086623A1", "about": "“Chemical Combination for the Generation of Disinfectant and Heat” (priority 2004, published 2010)", "test_system": "Staphylococcus aureus", "assay": "Destruction of S. aureus cultures by aqueous chlorine dioxide solutions (plate counts)", "type": "cell-based", "method": "In this test, S. aureus cells were suspended in Butterfield's phosphate buffer diluent with a pH of 7.2. The density of each of these robust collections of S. aureus suspensions was approximately 10^7 colony-forming-units per mL (10^7 CFU/mL). […] Cell counts were made on samples recovered on Baird-Parker Agar with EY-Tellurite and incubated at 35° C. for 48 hours. […] In these test results, S. aureus survival was detected only at the most dilute chlorine dioxide solutions (0.044 ppm). […] This observation is consistent with lethality of chemical agents for destroying microorganisms being the mathematical product of the concentration of the lethal agent (C) and the time (t) of exposure, (C×t).", "data": [{"smiles": "[O][Cl+][O-]", "note": "[chlorine dioxide]", "values": [{"measurement": "inactivation of the pathogens", "setting": "0.044 ppm chlorine dioxide solution, exposure 24 hours", "value": 100, "unit": "%"}, {"measurement": "survivors", "setting": "[ClO2] 0.044 ppm, 30° C., 3-5 min exposure", "value": 3.4, "unit": "% survivors"}, {"measurement": "CFU/mL × 10^−6", "setting": "[ClO2] 0.044 ppm, 30° C., 3-5 min exposure, control 3.4", "value": 0.116, "unit": "CFU/mL × 10^−6"}, {"measurement": "CFU/mL × 10^−6", "setting": "[ClO2] 0.044 ppm, exposure for 24 h", "value": 0.00, "unit": "CFU/mL × 10^−6"}, {"measurement": "CFU/mL × 10^−6", "setting": "[ClO2] 0.044 ppm, exposure over night", "value": "<1.0 × 10^−4 CFU/mL × 10^−6"}, {"measurement": "CFU/mL × 10^−6", "setting": "[ClO2] 0.44 ppm, 30° C., 3-5 min exposure, control 9.55", "value": 0, "unit": "CFU/mL × 10^−6"}, {"measurement": "CFU/mL × 10^−6", "setting": "[ClO2] 4.4 ppm, 30° C., 3-5 min exposure, control 3.4", "value": 0.00, "unit": "CFU/mL × 10^−6"}, {"measurement": "CFU/mL × 10^−6", "setting": "[ClO2] 44 ppm, 30° C., 3-5 min exposure, control 9.55", "value": 0.00, "unit": "CFU/mL × 10^−6"}]}]}
